Reference: article PMC9200625, “Identification and Functional Characterization of Peptides With Antimicrobial Activity From the Syphilis Spirochete, Treponema pallidum” (Frontiers in Microbiology, 2022)
Read-outs that look alike come from different tables or passages of the source. Bridge positions count the residues as written; N and C are the ends. Ends that are not written are not given here. Peptide text beside a SMILES is read from it.

What was measured:
[1] = system: S. enterica SL1344; assay type: cell-based, Salmonella enterica subsp. enterica serovar Typhimurium
Method: (§1) Bacterial strains used in this study were: E. coli ATCC 9723H, Pseudomonas aeruginosa ATCC 10148, Staphylococcus aureus ATCC 6538P (penicillin resistant), Streptococcus pyogenes (hospital isolate, strain unknown), Mycobacterium smegmatis MC^2155, N. gonorrhoeae ATCC 700825 (streptomycin resistant), and Salmonella enterica subsp. enterica serovar Typhimurium SL1344 (streptomycin resistant). E. coli, P. aeruginosa, S. aureus, M. smegmatis, and S. enterica were cultured aerobically at 37°C in Mueller Hinton broth (MHB) (Sigma-Aldrich, MO, United States) and on nonselective Mueller Hinton agar (MHA) plates. S. pyogenes was cultured in 5% carbon dioxide at 37°C in MHB supplemented with 5% lysed horse blood (Quad Five, MT, United States) (MHB + 5% HB) and on nonselective MHA plates supplemented with 5% defibrinated sheep blood (Quad Five, MT, United States) (MHA + 5% SB). N. gonorrhoeae was cultured in 5% carbon dioxide at 37°C in gonococcal (GC) chocolate broth medium and on nonselective GC agar plates [GC medium base (BD Difco, MD, United States) supplemented with 1% BBL™ hemoglobin (BD Biosciences, MD, United States) and 1% IsoVitaleX (BD Biosciences, MD, United States)]. Prior to antimicrobial susceptibility assays (as described below), N. gonorrhoeae cultures were subcultured on nonselective GC agar plates (as described above), to ensure bacterial viability. All bacterial stocks were stored in 20% glycerol at –80°C.
(§2) Bacterial suspensions were prepared by transferring bacterial colonies into MHB and resuspending using a vortex mixer to ensure complete suspension of any bacterial aggregates. Turbidity of the colony suspensions was adjusted spectrophotometrically to the required optical densities to achieve a turbidity equivalent to that of a 0.5 McFarland standard (1–2 × 10^8 CFU/mL) followed by dilution in MHB to achieve the standardized microbial inoculum of approximately 5 × 10^5 CFU/mL. Total viable counts (TVC) were routinely performed on all inoculum suspensions to ensure correct bacterial cell densities. […] Plates were incubated at 37°C for 16–24 h and MICs were determined using the unaided eye to identify the lowest concentration of AMP that inhibited visible growth of the tested bacterial species. […] MBCs were determined by plating the entire content of the wells containing the peptide/bacteria mixture representing the MIC and the entire contents of the preceding wells containing two-fold and four-fold more concentrated AMP dilutions onto nonselective agar plates.

[2] = system: E. coli ATCC 9723H; assay type: cell-based
Method: as §1
(§3) Bacterial suspensions were prepared by transferring bacterial colonies into MHB and resuspending using a vortex mixer to ensure complete suspension of any bacterial aggregates. Turbidity of the colony suspensions was adjusted spectrophotometrically to the required optical densities to achieve a turbidity equivalent to that of a 0.5 McFarland standard (1–2 × 10^8 CFU/mL) followed by dilution in MHB to achieve the standardized microbial inoculum of approximately 5 × 10^5 CFU/mL. Total viable counts (TVC) were routinely performed on all inoculum suspensions to ensure correct bacterial cell densities. The standardized bacterial suspensions were then incubated with two-fold serial dilutions of each peptide (dissolved in 11 μL of ultrapure sterile water; final peptide concentration range of 256 μg/mL–0.5 μg/mL) in Greiner polypropylene round bottom 96-well microtiter plates (Sigma-Aldrich, MO, United States). Each peptide was tested once per experiment, with a range of 3–9 independent experiments performed per peptide. Negative growth/sterility control wells contained bacterial growth media (100 μL) and the peptide solvent (11 μL of ultrapure sterile water). Positive growth control wells contained the standardized number of bacterial cells (100 μL of ∼ 5.0 × 10^5 CFU/mL) and peptide solvent (11 μL of ultrapure sterile water). Plates were incubated at 37°C for 16–24 h and MICs were determined using the unaided eye to identify the lowest concentration of AMP that inhibited visible growth of the tested bacterial species. If the sterility control well was turbid, the test was not considered valid. MBCs were determined by plating the entire content of the wells containing the peptide/bacteria mixture representing the MIC and the entire contents of the preceding wells containing two-fold and four-fold more concentrated AMP dilutions onto nonselective agar plates.

[3] = system: S. aureus ATCC 6538P; assay type: cell-based, Staphylococcus aureus
Method: as §1, §2

[4] = system: P. aeruginosa ATCC 10148; assay type: cell-based, Pseudomonas aeruginosa
Method: as §1, §3

[5] = system: M. smegmatis MC^2155; assay type: cell-based, Mycobacterium smegmatis
Method: as §1, §3

[6] = system: S. pyogenes Unknown strain; Clinical Isolate; assay type: cell-based, Streptococcus pyogenes; conditions: for MIC: broth microdilution, cultured in MHB + 5% lysed horse blood, 5% carbon dioxide, ~5 × 10^5 CFU/mL, peptide 256–0.5 μg/mL, 37°C 16–24 h, visible growth
Method: as §1, §3

[7] = system: N. gonorrhoeae ATCC 700825; assay type: cell-based, Neisseria gonorrhoeae
Method: as §1
The potential antimicrobial activity of the T. pallidum peptides against N. gonorrhoeae was determined using a modified agar dilution method. In this assay, N. gonorrhoeae colonies from GC chocolate agar plates were resuspended in MHB and the turbidity of the suspension was adjusted, as described above, to achieve the standardized microbial inoculum of approximately 5 × 10^5 CFU/mL. A two-fold serial dilution of the peptides (11 μL in sterile ultrapure water) was then prepared in wells 1–10 of a 96-well sterile polypropylene plate to obtain a dilution series corresponding to 10 times the required testing concentrations (2,560, 1,280, 640, 320, 160, 80, 40, 20, 10, 5 μg/mL). The bacterial suspension (100 μL) was dispensed into the wells containing the peptides. A negative growth/sterility control (well 12) contained bacterial growth media (100 μL) and the peptide solvent (11 μL of ultrapure sterile water). A positive growth control (well 11) contained the standardized number of bacterial cells (100 μL of ∼ 5.0 × 10^5 CFU/mL) and peptide solvent (11 μL of ultrapure sterile water). The 96-well plate was then incubated at 37°C in an atmosphere of 5% CO2 for 3 h to allow for peptide binding and antimicrobial activity. After the incubation period, an aliquot (20 μL) from wells 1–12 was removed and spotted onto the surface of a GC chocolate agar plate. N. gonorrhoeae spotted plates and TVC plates were incubated at 37°C in an atmosphere of 5% CO2 for 18–24 h. […] To determine the bactericidal activity of peptides, total viable counts (TVCs) were also prepared on GC chocolate agar plates for the 3 h-incubated peptide/bacteria mixtures. These counts were compared with TVCs from the corresponding positive growth wells to give the percentage of bacteria killed by each of the peptides following the 3-h incubation.

[8] = broth microdilution in MHB, ~5 × 10^5 CFU/mL, peptide 256–0.5 μg/mL two-fold dilutions, 37°C 16–24 h, visible growth by unaided eye, range over 3–9 independent experiments
[9] = wells at MIC, two-fold and four-fold higher plated on nonselective agar, 24 h 37°C, range over 3–9 independent experiments
[10] = range over 3–9 independent experiments

Compound: CC[C@H](C)[C@H](NC(=O)[C@@H](NC(=O)[C@@H]1CCCN1C(=O)[C@H](Cc1ccccc1)NC(=O)[C@@H](N)Cc1ccccc1)[C@@H](C)CC)C(=O)N[C@@H](C)C(=O)N[C@@H](CCCNC(=N)N)C(=O)N[C@@H](CC(C)C)C(=O)N[C@@H](C)C(=O)N[C@@H](C)C(=O)N[C@@H](CCCCN)C(=O)N[C@H](C(=O)N[C@H](C(=O)N1CCC[C@H]1C(=O)N[C@@H](CO)C(=O)N[C@@H](CC(C)C)C(=O)N[C@H](C(=O)N[C@H]1CSSC[C@@H](C(=O)O)NC(=O)[C@H](CCCCN)NC(=O)[C@H](CCCCN)NC(=O)[C@H]([C@@H](C)O)NC(=O)[C@H](C(C)C)NC(=O)[C@H](C)NC1=O)C(C)C)[C@@H](C)CC)C(C)C [RaCa-2] (H-FFPIIARLAAKVIPSLVCAVTKKC-OH; disulfide 18-24; N-terminus and C-terminus assumed)
- MIC ([1]; SL1344): 6.2 to 49.4 µM
- MBC ([1]; SL1344, 24 h): 12.4 to 98.9 µM
- MIC ([2]; ATCC 9723): 3.1 to 12.4 µM
- MBC ([2]; ATCC 9723, 24 h): 6.2 to 24.7 µM
- MIC ([3]; ATCC 6538): 3.1 to 6.2 µM
- MBC ([3]; ATCC 6538, 24 h): 3.1 to 12.4 µM
- MIC ([4]; ATCC 10148): 49.4 to 98.9 µM
- MBC ([4]; ATCC 10148, 24 h): ≥98.9 µM
- MIC ([5]; MC^2155): 1.5 to 3.1 µM
- MBC ([5]; MC^2155, 24 h): 1.5 to 6.2 µM
- MBC ([6]; Unknown strain, Clinical Isolate, 24 h): 6.2 to 49.4 µM

Compound: CC(C)C[C@H](NC(=O)[C@H](CCC(=O)O)NC(=O)[C@H](CC(N)=O)NC(=O)CNC(=O)[C@H](Cc1ccc(O)cc1)NC(=O)[C@H](CS)NC(=O)[C@H](Cc1c[nH]cn1)NC(=O)[C@H](CC(C)C)NC(=O)[C@H](CO)NC(=O)[C@H](CCCNC(=N)N)NC(=O)[C@H](Cc1c[nH]cn1)NC(=O)[C@H](Cc1ccc(O)cc1)NC(=O)CNC(=O)[C@@H](NC(=O)[C@H](CC(N)=O)NC(=O)[C@H](CS)NC(=O)[C@H](CC(N)=O)NC(=O)[C@H](CS)NC(=O)[C@H](Cc1c[nH]cn1)NC(=O)[C@H](CO)NC(=O)CNC(=O)[C@H](CS)NC(=O)CN)C(C)C)C(=O)N[C@@H](Cc1c[nH]cn1)C(=O)NCC(=O)N[C@@H](CCCCN)C(=O)N[C@@H](CCC(N)=O)C(=O)N[C@@H](CS)C(=O)NCC(=O)N[C@@H](Cc1ccccc1)C(=O)N[C@@H](CO)C(=O)N[C@@H](CCCNC(=N)N)C(=O)N[C@@H](CS)C(=O)NCC(=O)O [Tp0451a_N] (H-GCGSHCNCNVGYHRSLHCYGNELHGKQCGFSRCG-OH)
- N. gonorrhoeae killing (%) ([7]; ATCC 700825, 3 h, 128 μg/mL): 0%
- N. gonorrhoeae killing (%) ([7]; ATCC 700825, 3 h, 256 μg/mL): 0%

Compound: AMRIALWNRATHGEQGALQHLLAG [Tp0751_p5]
- N. gonorrhoeae killing (%) ([7]; ATCC 700825, 3 h, 32 μg/mL): 0%
- N. gonorrhoeae killing (%) ([7]; ATCC 700825, 3 h, 64 μg/mL): 0%
- N. gonorrhoeae killing (%) ([7]; ATCC 700825, 3 h, 128 μg/mL): 0%
- N. gonorrhoeae killing (%) ([7]; ATCC 700825, 3 h, 256 μg/mL): 0%

Compound: IGRARAITHTWGIWCRWGKVWRRS [Tp0451a_C]
- MIC [5, 8]: 1.4 to 2.7 µM
- MBC [5, 9]: 1.4 to 5.4 µM
- MIC [6, 10]: 5.4 to 10.8 µM
- MBC [6, 9]: 5.4 to 43.3 µM
- N. gonorrhoeae killing (%) ([7]; ATCC 700825, 3 h, 32 μg/mL): 0–93.0%
- N. gonorrhoeae killing (%) ([7]; ATCC 700825, 3 h, 64 μg/mL): 90.5–100%
- N. gonorrhoeae killing (%) ([7]; ATCC 700825, 3 h, 128 μg/mL): 94.4–100%
- N. gonorrhoeae killing (%) ([7]; ATCC 700825, 3 h, 256 μg/mL): 97.6–100%

Compound: IGRARAITHTWGIWSRWGKVWRRS [Tp0451a_C_C85S]
- MIC [2, 8]: 10.9 to 21.8 µM
- MBC [2, 9]: 10.9 to 43.6 µM
- MIC [5, 8]: 5.4 µM
- MBC [5, 9]: 10.9 µM
- MIC [6, 10]: 5.4 to 10.9 µM
- MBC [6, 9]: 10.9 to 43.6 µM
- N. gonorrhoeae killing (%) ([7]; ATCC 700825, 3 h, 32 μg/mL): 0%
- N. gonorrhoeae killing (%) ([7]; ATCC 700825, 3 h, 64 μg/mL): 0%
- N. gonorrhoeae killing (%) ([7]; ATCC 700825, 3 h, 128 μg/mL): 0%
- N. gonorrhoeae killing (%) ([7]; ATCC 700825, 3 h, 256 μg/mL): 0%

Compound: KGIVAERILKPCVRRKVNGKFRS [Tp0749_C]
- MIC [2, 8]: 12.0 µM
- MBC [2, 9]: 48.2 to 96.4 µM
- MIC [4, 8]: 24.1 to 48.2 µM
- MBC [4, 9]: 96.4 µM
- MIC [5, 8]: 1.5 to 3.0 µM
- MBC [5, 9]: 1.5 to 3.0 µM
- N. gonorrhoeae killing (%) ([7]; ATCC 700825, 3 h, 128 μg/mL): 0%
- N. gonorrhoeae killing (%) ([7]; ATCC 700825, 3 h, 256 μg/mL): 0%

Compound: KGIVAERILKPSVRRKVNGKFRS [Tp0749_C_C61S]
- MIC [2, 8]: 24.2 to 48.5 µM
- MIC [4, 8]: 97.0 µM
- MIC [5, 8]: 12.1 to 24.2 µM
- MBC [5, 9]: 24.2 to 48.5 µM
- N. gonorrhoeae killing (%) ([7]; ATCC 700825, 3 h, 128 μg/mL): 0%
- N. gonorrhoeae killing (%) ([7]; ATCC 700825, 3 h, 256 μg/mL): 0%

Compound: PFMQVITWARLYHKNQKRYEKIKK [Tp0749_N]
- MIC [5, 8]: 0.3 to 1.3 µM
- MBC [5, 9]: 1.3 µM
- N. gonorrhoeae killing (%) ([7]; ATCC 700825, 3 h, 128 μg/mL): 0%
- N. gonorrhoeae killing (%) ([7]; ATCC 700825, 3 h, 256 μg/mL): 0%

Compound: RSLEGTDRFPFVRLKNSRKLEFKDIKGIKREQFVKIL [sLL-37]
- MIC ([4]; ATCC 10148): ≥57 µM
- MIC ([5]; MC^2155): 14.2 to 28.5 µM
- MBC ([5]; MC^2155, 24 h): ≥57 µM
- N. gonorrhoeae killing (%) ([7]; peptide 32 μg/mL, 3-h incubation 37°C 5% CO2, TVCs versus positive growth control, all of three to six independent experiments): 0%
- N. gonorrhoeae killing (%) ([7]; peptide 64 μg/mL, 3-h incubation 37°C 5% CO2, TVCs versus positive growth control, all of three to six independent experiments): 0%
- N. gonorrhoeae killing (%) ([7]; peptide 128 μg/mL, 3-h incubation 37°C 5% CO2, TVCs versus positive growth control, all of three to six independent experiments): 0%
- N. gonorrhoeae killing (%) ([7]; peptide 256 μg/mL, 3-h incubation 37°C 5% CO2, TVCs versus positive growth control, all of three to six independent experiments): 0%
